For 18 compounds, IC50 and efflux ratio results are on record in patent US12447153B2, “HER2 mutation inhibitors” (Array BioPharma Inc., priority 2021, dated 2025).

A value given as a limit tells only on which side of the number the result lay.

Broadly, the IC50 is the concentration at which inhibition is half-maximal.

The target of one data set is EGFR wild type (EGFR WT) (Homo sapiens (Human), UniProt P00533). The data set can be described thus: Cellular Phosphorylation Assay, Assay 5 (EGF-stimulated EGFR phosphorylation, NIH 3T3 cells). It counts as cell-based.
In data set [1] the target is ErbB2 with Exon 20 YVMA insertion (HER2-YVMA) (Homo sapiens (Human), UniProt P04626, INS775YVMA). The experiment in a line: Cellular Phosphorylation Assay, Assay 4 (constitutive ErbB2 phosphorylation, NIH 3T3 cells). It counts as cell-based.
For a further data set, the target named is ErbB2 WT (Homo sapiens (Human), UniProt P04626). The experiment in a line: ErbB Enzyme Assay (HTRF KinEASE-TK), Assay 2. It counts as biochemical. On the technique in general: In TR-FRET formats the signal depends on donor and acceptor labels being close together.
A further data set concerns the target BCRP (Homo sapiens (Human), UniProt Q9UNQ0). The data set can be described thus: BCRP MDCKII efflux assay (Assay 7). It counts as in vitro ADME. The note with it: dog; efflux ratio Papp(B-A)/Papp(A-B), BCRP MDCKII cells; read-out: Assay 7 Pe Ratio. As to the method: Assay conditions included with and without the BCRP-specific inhibitor, KO143, at a concentration of 0.3 μM to ascertain the contribution of BCRP to the efflux value of the test compound.
Final organic concentration in the assay was 1%.

In a further data set the target is MDR1 (P-gp) (Homo sapiens (Human), UniProt P08183). The experiment in a line: in vitro. The note with it: pig, LLC-PK1.
The target in the next data set is EGFR (Homo sapiens (Human), UniProt P00533). The data set can be described thus: ErbB Enzyme Assay (HTRF KinEASE-TK), Assay 3. It counts as biochemical.
[2] abbreviates: cellular EGFR WT phosphorylation, EGF-stimulated.
The mark [3] stands for this setting: cellular ErbB2 YVMA phosphorylation.
[4] abbreviates: EGF-stimulated EGFR WT phosphorylation.

Chain of EGFR (P00533 25-1210): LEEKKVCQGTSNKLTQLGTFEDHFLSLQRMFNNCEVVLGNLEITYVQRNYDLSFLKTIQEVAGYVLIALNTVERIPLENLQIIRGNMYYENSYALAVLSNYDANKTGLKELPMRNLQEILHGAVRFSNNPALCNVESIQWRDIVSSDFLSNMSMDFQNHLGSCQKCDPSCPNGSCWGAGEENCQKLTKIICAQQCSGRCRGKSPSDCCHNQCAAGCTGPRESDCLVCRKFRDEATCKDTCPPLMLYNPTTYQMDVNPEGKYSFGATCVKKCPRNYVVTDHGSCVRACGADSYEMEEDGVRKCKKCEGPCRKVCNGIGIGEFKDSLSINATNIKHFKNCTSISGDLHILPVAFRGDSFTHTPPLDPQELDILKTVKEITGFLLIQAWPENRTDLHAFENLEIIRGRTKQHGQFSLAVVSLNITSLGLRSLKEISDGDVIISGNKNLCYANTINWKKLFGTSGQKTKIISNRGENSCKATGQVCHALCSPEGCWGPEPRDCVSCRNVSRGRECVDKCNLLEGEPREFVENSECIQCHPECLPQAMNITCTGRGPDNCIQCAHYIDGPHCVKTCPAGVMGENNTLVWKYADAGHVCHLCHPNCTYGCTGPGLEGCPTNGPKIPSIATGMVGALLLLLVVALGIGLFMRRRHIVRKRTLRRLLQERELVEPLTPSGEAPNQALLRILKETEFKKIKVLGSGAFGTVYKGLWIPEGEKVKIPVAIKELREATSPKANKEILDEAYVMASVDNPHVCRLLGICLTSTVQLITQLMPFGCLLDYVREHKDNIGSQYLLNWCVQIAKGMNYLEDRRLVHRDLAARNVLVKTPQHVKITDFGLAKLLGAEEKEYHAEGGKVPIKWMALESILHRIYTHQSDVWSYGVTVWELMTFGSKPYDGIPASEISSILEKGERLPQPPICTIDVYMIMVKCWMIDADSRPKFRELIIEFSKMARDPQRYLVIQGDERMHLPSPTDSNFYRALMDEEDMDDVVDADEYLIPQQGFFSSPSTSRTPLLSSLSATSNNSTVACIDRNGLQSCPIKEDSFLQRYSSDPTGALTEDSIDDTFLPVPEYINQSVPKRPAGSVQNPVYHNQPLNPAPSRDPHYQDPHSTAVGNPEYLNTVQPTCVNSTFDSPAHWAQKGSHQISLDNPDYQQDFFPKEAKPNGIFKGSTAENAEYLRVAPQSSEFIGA
Chain of EGFR wild type (EGFR WT) (P00533 25-1210): as above
Chain of ErbB2 with Exon 20 YVMA insertion (HER2-YVMA) (P04626 other isoform, or with tags, fused parts or gaps ins YVMA behind 775): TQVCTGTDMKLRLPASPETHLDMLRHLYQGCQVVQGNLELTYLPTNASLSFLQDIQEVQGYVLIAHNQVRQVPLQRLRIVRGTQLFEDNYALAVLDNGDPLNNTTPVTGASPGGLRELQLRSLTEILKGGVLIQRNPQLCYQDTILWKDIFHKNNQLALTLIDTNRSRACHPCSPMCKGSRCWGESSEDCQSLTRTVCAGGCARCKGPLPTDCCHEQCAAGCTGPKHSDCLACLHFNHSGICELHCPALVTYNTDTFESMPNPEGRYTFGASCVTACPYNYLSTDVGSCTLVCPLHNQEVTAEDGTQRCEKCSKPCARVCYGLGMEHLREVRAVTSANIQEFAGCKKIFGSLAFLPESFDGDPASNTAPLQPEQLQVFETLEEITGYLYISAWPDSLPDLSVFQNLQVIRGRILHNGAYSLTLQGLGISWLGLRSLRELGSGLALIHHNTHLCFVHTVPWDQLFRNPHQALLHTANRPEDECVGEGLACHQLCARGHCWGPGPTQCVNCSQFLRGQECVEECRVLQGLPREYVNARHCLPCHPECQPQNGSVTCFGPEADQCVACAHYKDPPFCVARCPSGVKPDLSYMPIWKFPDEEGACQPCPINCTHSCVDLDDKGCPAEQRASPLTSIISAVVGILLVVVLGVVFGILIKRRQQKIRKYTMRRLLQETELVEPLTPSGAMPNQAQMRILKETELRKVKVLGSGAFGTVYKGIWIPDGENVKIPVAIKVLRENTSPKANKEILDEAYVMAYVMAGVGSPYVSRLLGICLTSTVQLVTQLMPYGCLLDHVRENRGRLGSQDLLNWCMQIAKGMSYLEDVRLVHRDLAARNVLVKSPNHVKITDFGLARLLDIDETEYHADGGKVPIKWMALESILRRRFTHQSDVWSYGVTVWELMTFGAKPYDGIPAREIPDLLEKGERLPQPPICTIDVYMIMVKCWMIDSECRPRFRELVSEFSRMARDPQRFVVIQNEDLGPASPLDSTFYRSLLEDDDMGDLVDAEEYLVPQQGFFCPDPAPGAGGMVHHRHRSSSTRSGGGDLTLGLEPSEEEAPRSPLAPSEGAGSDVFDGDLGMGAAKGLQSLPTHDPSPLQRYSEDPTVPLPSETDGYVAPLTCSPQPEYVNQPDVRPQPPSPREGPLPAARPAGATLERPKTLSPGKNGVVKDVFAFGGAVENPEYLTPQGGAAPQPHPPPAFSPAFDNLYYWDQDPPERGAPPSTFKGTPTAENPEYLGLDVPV
Chain of MDR1 (P-gp) (P08183 whole entry): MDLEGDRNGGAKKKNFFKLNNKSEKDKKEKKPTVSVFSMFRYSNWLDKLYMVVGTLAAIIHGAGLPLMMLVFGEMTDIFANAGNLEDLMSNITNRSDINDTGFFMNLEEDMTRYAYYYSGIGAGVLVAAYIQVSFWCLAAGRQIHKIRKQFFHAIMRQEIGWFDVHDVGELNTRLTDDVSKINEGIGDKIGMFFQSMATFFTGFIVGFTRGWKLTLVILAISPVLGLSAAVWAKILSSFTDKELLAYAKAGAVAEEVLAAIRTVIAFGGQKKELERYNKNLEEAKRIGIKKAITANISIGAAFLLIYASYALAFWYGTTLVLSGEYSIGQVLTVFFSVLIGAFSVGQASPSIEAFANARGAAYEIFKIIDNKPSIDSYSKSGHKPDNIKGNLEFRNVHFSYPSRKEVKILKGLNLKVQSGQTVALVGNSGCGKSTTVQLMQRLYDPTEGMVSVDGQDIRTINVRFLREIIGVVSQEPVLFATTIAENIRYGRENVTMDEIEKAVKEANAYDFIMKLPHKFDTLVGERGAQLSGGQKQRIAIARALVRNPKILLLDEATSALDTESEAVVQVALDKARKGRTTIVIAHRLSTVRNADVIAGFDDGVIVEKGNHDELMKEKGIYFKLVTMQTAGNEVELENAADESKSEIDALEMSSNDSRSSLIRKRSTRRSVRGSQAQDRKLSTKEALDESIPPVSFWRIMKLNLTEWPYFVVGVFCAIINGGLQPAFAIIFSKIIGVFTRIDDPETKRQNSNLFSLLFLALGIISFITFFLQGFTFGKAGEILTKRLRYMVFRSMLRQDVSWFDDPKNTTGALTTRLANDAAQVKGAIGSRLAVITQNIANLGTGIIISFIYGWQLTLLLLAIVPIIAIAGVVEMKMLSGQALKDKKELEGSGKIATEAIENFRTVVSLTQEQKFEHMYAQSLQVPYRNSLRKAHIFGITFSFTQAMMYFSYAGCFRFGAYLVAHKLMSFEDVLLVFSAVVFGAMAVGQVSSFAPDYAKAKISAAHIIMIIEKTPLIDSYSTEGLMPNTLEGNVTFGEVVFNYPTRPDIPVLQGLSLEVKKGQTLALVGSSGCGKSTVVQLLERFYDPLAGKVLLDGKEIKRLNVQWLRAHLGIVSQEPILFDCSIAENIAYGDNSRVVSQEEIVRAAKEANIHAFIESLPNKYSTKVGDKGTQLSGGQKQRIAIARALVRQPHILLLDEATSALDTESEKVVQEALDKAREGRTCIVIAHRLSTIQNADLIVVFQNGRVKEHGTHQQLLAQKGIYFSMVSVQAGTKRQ

Take `C=CC(=O)N1CCCN(c2ccc3ncnc(Nc4ccc(Oc5ccn6ncnc6c5)c(Cl)c4F)c3n2)CC1(C)C` [Example 261]: the IC50 against EGFR wild type (EGFR WT) (setting [2]) was 716 nM; in data set [1] (setting [3]) it was 27.9 nM; against ErbB2 WT (ErbB2 WT enzyme assay), 13.4 nM; against EGFR (EGFR enzyme assay), no less than 10000 nM. In addition, the efflux ratio at 2 h, 1 µM on BCRP came out at 3.6; on MDR1 (P-gp), 1.3.
Consider `C=CC(=O)N1CCC12CN(c1ccc3ncnc(Nc4cc(C)c(Oc5ccn6ncnc6c5)cc4F)c3n1)C2` [Example 361], for which the half-inhibitory concentration (IC50) on EGFR wild type (EGFR WT) (setting [2]) is 760 nM; in data set [1] (setting [3]), 8 nM; against ErbB2 WT (ErbB2 WT enzyme assay), 33.6 nM; against EGFR (EGFR enzyme assay) it was 908 nM. Further, the efflux ratio at 2 h, 1 µM on BCRP came to 2.3; on MDR1 (P-gp) it was 2.9.
As to `C=CC(=O)N1[C@H](C)CN(c2ccc3ncnc(Nc4ccc(Oc5cnc6c(c5)ncn6C)c(C)c4F)c3n2)C[C@@H]1C` [Example 442], the IC50 against EGFR wild type (EGFR WT) (setting [2]) is no less than 5000 nM; in data set [1] (setting [3]), 29.7 nM; against ErbB2 WT (ErbB2 WT enzyme assay), 464 nM; on EGFR (EGFR enzyme assay), no less than 10000 nM. Further, the efflux ratio at 2 h, 1 µM turned out to be 1.9 at BCRP and 1 on MDR1 (P-gp).
On to `C=CC(=O)N1C[C@H](c2ccc3ncnc(Nc4ccc(Oc5ccc6c(c5)ncn6C)c(C)c4F)c3n2)C[C@H]1C` [Example 193, 1-((2R,4R)-4-(4-((2-fluoro-3-methyl-4-((1-methyl-1H-benzo[d]imidazol-5-yl)oxy)phenyl)amino)pyrido[3,2-d]pyrimidin-6-yl)-2-methylpyrrolidin-1-yl)prop-2-en-1-one], for which the IC50 against EGFR wild type (EGFR WT) (setting [4]) is no less than 5000 nM; in data set [1] (ErbB2 YVMA phosphorylation), 16 nM; on ErbB2 WT (ErbB2 WT enzyme) it was 61.8 nM; at EGFR (EGFR enzyme) it was no less than 10000 nM. Also, the efflux ratio at 2 h, 1 µM was determined as 3.4 on BCRP and 0.7 at MDR1 (P-gp).
Consider `C=CC(=O)N1CCN(c2ccc3ncnc(Nc4ccc(Oc5ccc6c(c5)ncn6C)c(Cl)c4F)c3n2)CC1(C)C` [Example 262], for which the IC50 is no less than 5000 nM against EGFR wild type (EGFR WT) (setting [2]), 32.4 nM in data set [1] (setting [3]), 18.9 nM at ErbB2 WT (ErbB2 WT enzyme assay) and no less than 10000 nM on EGFR (EGFR enzyme assay). Besides, the efflux ratio at 2 h, 1 µM was 4.6 on BCRP and 1.7 on MDR1 (P-gp).
In the case of `CC#CC(=O)N1CC2CCC(C1)N2c1ccc2ncnc(Nc3ccc(Oc4ccn5ncnc5c4)c(C)c3F)c2n1` [Example 246, 1-(8-(4-((4-([1,2,4]triazolo[1,5-a]pyridin-7-yloxy)-2-fluoro-3-methylphenyl)amino)pyrido[3,2-d]pyrimidin-6-yl)-3,8-diazabicyclo[3.2.1]octan-3-yl)but-2-yn-1-one], the IC50 on EGFR wild type (EGFR WT) (setting [4]) was determined as 1300 nM; in data set [1] (ErbB2 YVMA phosphorylation), 16.2 nM; at ErbB2 WT (ErbB2 WT enzyme) it was 34.8 nM; at EGFR (EGFR enzyme) it was 1800 nM. Besides, the efflux ratio at 2 h, 1 µM on BCRP was 1.3; on MDR1 (P-gp), 0.5.
Turning to `C=CC(=O)N1[C@@H]2CC[C@H]1[C@H](c1ccc3ncnc(Nc4ccc(Oc5cnc6c(c5)ncn6C)c(C)c4F)c3n1)C2` [Example 419], the IC50 was no less than 5000 nM at EGFR wild type (EGFR WT) (setting [2]), 21.5 nM in data set [1] (setting [3]), 42.3 nM at ErbB2 WT (ErbB2 WT enzyme assay) and 1040 nM against EGFR (EGFR enzyme assay). Also, the efflux ratio at 2 h, 1 µM on BCRP was 2.2; at MDR1 (P-gp), 0.8.
Regarding `C=CC(=O)N1C[C@H]2C[C@H](c3ccc4ncnc(Nc5cc(C)c(Oc6ccc7c(c6)ncn7C)cc5F)c4n3)C[C@H]2C1` [Example 136, 1-((3aR,5s,6aS)-5-(4-((2-fluoro-5-methyl-4-((1-methyl-1H-benzo[d]imidazol-5-yl)oxy)phenyl)amino)pyrido[3,2-d]pyrimidin-6-yl)hexahydrocyclopenta[c]pyrrol-2(1H)-yl)prop-2-en-1-one], the concentration for half-maximal inhibition (IC50) against EGFR wild type (EGFR WT) (setting [4]) was no less than 5000 nM; in data set [1] (ErbB2 YVMA phosphorylation), 28.6 nM; against ErbB2 WT (ErbB2 WT enzyme), 39.9 nM; against EGFR (EGFR enzyme) it was no less than 10000 nM. Besides, the efflux ratio at 2 h, 1 µM at BCRP and at MDR1 (P-gp) was 1.7 throughout.
Regarding `C=CC(=O)N1C[C@@H]2C[C@H]1CN(c1ccc3ncnc(Nc4ccc(Oc5ccn6ncnc6c5)c(C)c4F)c3n1)C2` [Example 251], the IC50 was no less than 5000 nM at EGFR wild type (EGFR WT) (setting [2]), 27.3 nM in data set [1] (setting [3]), 494 nM on ErbB2 WT (ErbB2 WT enzyme assay) and no less than 10000 nM on EGFR (EGFR enzyme assay). For the same compound, the efflux ratio at 2 h, 1 µM on BCRP amounted to 4.8; at MDR1 (P-gp), 1.5.
`C=CC(=O)N1CCC(Oc2ccc3ncnc(Nc4ccc(Oc5ccc6cn(C)nc6c5)c(C)c4F)c3n2)CC1` [Example 6, 1-(4-((4-((2-fluoro-3-methyl-4-((2-methyl-2H-indazol-6-yl)oxy)phenyl)amino)pyrido[3,2-d]pyrimidin-6-yl)oxy)piperidin-1-yl)prop-2-en-1-one]: the half-inhibitory concentration (IC50) on EGFR wild type (EGFR WT) (setting [4]) was 2920 nM; in data set [1] (ErbB2 YVMA phosphorylation), 54.2 nM; at ErbB2 WT (ErbB2 WT enzyme), 3300 nM; at EGFR (EGFR enzyme), no less than 10000 nM. Moreover, the values for the efflux ratio at 2 h, 1 µM on BCRP and on MDR1 (P-gp) were 2.5 and 1.3, respectively.
For `C=CC(=O)N1CCN(c2ccc3ncnc(Nc4cc(C)c(Oc5cnc6c(c5)ncn6C)cc4F)c3n2)C[C@H]1C1CC1` [Example 356], the 50% inhibitory concentration (IC50) at EGFR wild type (EGFR WT) (setting [2]) is no less than 5000 nM; in data set [1] (setting [3]) it was 27.1 nM; on ErbB2 WT (ErbB2 WT enzyme assay), 234 nM; at EGFR (EGFR enzyme assay) it was no less than 10000 nM. Besides, the efflux ratio at 2 h, 1 µM on BCRP is 4.8; on MDR1 (P-gp) it was 0.9.
In the case of `C=CC(=O)N1C[C@H]2C[C@@H]1[C@H](c1ccc3ncnc(Nc4cc(C)c(Oc5cnc6c(c5)ncn6C)cc4F)c3n1)C2` [Example 416], the 50% inhibitory concentration (IC50) is no less than 5000 nM at EGFR wild type (EGFR WT) (setting [2]), 36.6 nM in data set [1] (setting [3]), 79.5 nM on ErbB2 WT (ErbB2 WT enzyme assay) and 2710 nM on EGFR (EGFR enzyme assay). Besides, the efflux ratio at 2 h, 1 µM at BCRP was found to be 2; at MDR1 (P-gp), 0.9.
Take `C=CC(=O)N1[C@H](C)CN(c2ccc3ncnc(Nc4cc(Cl)c(Oc5ccn6ncnc6c5)cc4F)c3n2)C[C@@H]1C` [Example 265]: the 50% inhibitory concentration (IC50) amounted to 4040 nM against EGFR wild type (EGFR WT) (setting [2]), 33.9 nM in data set [1] (setting [3]), 17.2 nM against ErbB2 WT (ErbB2 WT enzyme assay) and 7760 nM on EGFR (EGFR enzyme assay). For the same compound, the values for the efflux ratio at 2 h, 1 µM on BCRP and on MDR1 (P-gp) were 3.4 and 1.2, respectively.
With `C=CC(=O)N1CCC(c2nc3c(Nc4ccc(Oc5ccc6c(c5)ncn6C)c(C)c4)ncnc3cc2OC)CC1` [Example 42, 1-(4-(7-methoxy-4-((3-methyl-4-((1-methyl-1H-benzo[d]imidazol-5-yl)oxy)phenyl)amino)pyrido[3,2-d]pyrimidin-6-yl)piperidin-1-yl)prop-2-en-1-one], the IC50 is no less than 5000 nM against EGFR wild type (EGFR WT) (setting [4]), 17 nM in data set [1] (ErbB2 YVMA phosphorylation), 14.7 nM at ErbB2 WT (ErbB2 WT enzyme) and 778 nM against EGFR (EGFR enzyme). Further, the efflux ratio at 2 h, 1 µM at BCRP was 2.9; on MDR1 (P-gp), 2.5.
For the compound `C=CC(=O)N1CCC(Oc2nc3c(Nc4ccc(Oc5ccn6ncnc6c5)c(Cl)c4F)ncnc3cc2OC)CC1` [Example 39, 1-(4-((4-((4-([1,2,4]triazolo[1,5-a]pyridin-7-yloxy)-3-chloro-2-fluorophenyl)amino)-7-methoxypyrido[3,2-d]pyrimidin-6-yl)oxy)piperidin-1-yl)prop-2-en-1-one], the IC50 at EGFR wild type (EGFR WT) (setting [4]) amounted to 46.8 nM; in data set [1] (ErbB2 YVMA phosphorylation), 5.3 nM; against ErbB2 WT (ErbB2 WT enzyme) it was 5.5 nM; against EGFR (EGFR enzyme), 49.3 nM. Also, the efflux ratio at 2 h, 1 µM turned out to be 2.6 at BCRP and 2.3 at MDR1 (P-gp).
With `CC#CC(=O)N1CC[C@@H]2C[C@H]1CN2c1ccc2ncnc(Nc3ccc(Oc4ccn5ncnc5c4)c(C)c3F)c2n1` [Example 176, 1-((1 S,5R)-6-(4-((4-([1,2,4]triazolo[1,5-a]pyridin-7-yloxy)-2-fluoro-3-methylphenyl)amino)pyrido[3,2-d]pyrimidin-6-yl)-2,6-diazabicyclo[3.2.1]octan-2-yl)but-2-yn-1-one], the IC50 at EGFR wild type (EGFR WT) (setting [4]) came to 3620 nM; in data set [1] (ErbB2 YVMA phosphorylation), 24.4 nM; against ErbB2 WT (ErbB2 WT enzyme), 48.5 nM; at EGFR (EGFR enzyme), 6690 nM. The efflux ratio at 2 h, 1 µM on BCRP came out at 2.4; on MDR1 (P-gp), 1.
Consider `C=CC(=O)N1C[C@H]2CC[C@@H]1C[C@@H]2c1ccc2ncnc(Nc3ccc(Oc4ccn5ncnc5c4)c(C)c3F)c2n1` (racemic) [Example 217, rac-1-((1R,4S,5S)-5-(4-((4-([1,2,4]triazolo[1,5-a]pyridin-7-yloxy)-2-fluoro-3-methylphenyl)amino)pyrido[3,2-d]pyrimidin-6-yl)-2-azabicyclo[2.2.2]octan-2-yl)prop-2-en-1-one], for which the half-inhibitory concentration (IC50) turned out to be 1850 nM against EGFR wild type (EGFR WT) (setting [4]), 11.1 nM in data set [1] (ErbB2 YVMA phosphorylation), 18.8 nM against ErbB2 WT (ErbB2 WT enzyme) and 1460 nM at EGFR (EGFR enzyme). Further, the efflux ratio at 2 h, 1 µM at BCRP stood at 1.9; at MDR1 (P-gp), 0.8.
Consider `C=CC(=O)N1CCN(c2ccc3ncnc(Nc4ccc(Oc5ccn6ncnc6c5)c(C)c4F)c3n2)CC1(C)C` [Example 31, 1-(4-(4-((4-([1,2,4]triazolo[1,5-a]pyridin-7-yloxy)-2-fluoro-3-methylphenyl)amino)pyrido[3,2-d]pyrimidin-6-yl)-2,2-dimethylpiperazin-1-yl)prop-2-en-1-one], for which the IC50 was 928 nM at EGFR wild type (EGFR WT) (setting [4]), 22.7 nM in data set [1] (ErbB2 YVMA phosphorylation), 14.3 nM against ErbB2 WT (ErbB2 WT enzyme) and 6540 nM on EGFR (EGFR enzyme). The efflux ratio at 2 h, 1 µM came to 1.8 on BCRP and 1.3 on MDR1 (P-gp).
